Test: Equilibrium density gradient centrifugation of adjuvanted RSV virosomes
Assay type: physicochemical
Conditions: 10-60% sucrose gradient, spun 66 hrs, after overnight storage at 4° C.
Protocol: To 975 μl of virosomes, containing 850 nmol of phospholipids, 25 μl of DMSO solution containing 153 nmol of 3-D-PHAD was rapidly added while agitating the sample on a vortex mixer. After overnight storage at 4° C., the density of the virosomes was analyzed by equilibrium density gradient centrifugation loaded on 10-60% sucrose gradients, which were spun for 66 hrs in a Sorvall AH 650 rotor at 50 krpm. […] Samples from the gradient were analyzed for sucrose concentration by refractometry, giving a measure of density, phosphate (both lipid and 3-D-PHAD), and protein.
The above adjuvant solutions were added to four tubes with 950 μl of virosomes each, containing 850 nmol of phospholipids, with rapid mixing on a vortex. After overnight storage at 4° C., the density of the virosomes was analyzed by equilibrium density gradient centrifugation on 10-60% sucrose gradients, which were spun for 66 hrs in a Sorvall AH 650 rotor at 120 000 g. Samples from the gradient were analyzed for density, phosphate (both lipid and 3 DPHAD), and protein.

## CCCCCCCCCCCCCC(=O)O[C@H](CCCCCCCCCCC)CC(=O)O[C@@H]1[C@@H](NC(=O)C[C@@H](CCCCCCCCCCC)OC(=O)CCCCCCCCCCC)[C@H](OC[C@H]2O[C@H](O)[C@H](NC(=O)C[C@H](O)CCCCCCCCCCC)[C@@H](O)[C@@H]2O)O[C@H](CO)[C@H]1OP(=O)(O)O.N [3-D-PHAD]
  density of band in equilibrium density gradient: around 1.12 g/ml
